In US11485733B2, “Azaquinoline derivatives” (BAYER ANIMAL HEALTH GMBH, priority 2017, dated 2022):

How the values were obtained:
D. immitis Slo-1 = D. immitis Slo-1 (Dirofilaria immitis, UniProt I0DFK5); test: D. immitis Slo-1, action at a recombinant CHO cell line (membrane potential, FLIPR); format: cell-based
[1] = tested on: Dirofilaria immitis microfilariae; test: Dirofilaria immitis microfilariae (DIROIM L1) motility; conditions: 72 h, read-out: EC50 (reduction of motility)
C. elegans Slo-1a = C. elegans Slo-1a (Caenorhabditis elegans, UniProt Q95V25); conditions: pE50 (negative decadic logarithm of EC50), CHO cells expressing C. elegans Slo-1a; voltage sensitive dye, 70 mM KCl
Description: Generation of a Stable C. elegans CHO Cell Line
A CHO cell line was obtained from ATCC, code ATCC CRL-9096. […] The transfection solution included 300 μL OptiMEM (Life Technologies, Nr.: 31985), 2 μL (=6 μg) of plasmid DNA containing the C. elegans Slo 1a gene and 9 μL FugeneHD (Promega, Nr.: E2311), and was added to the cells prior to incubation for 48 hours at 37° C., 5% CO2. The transfection medium was exchanged for the selection medium which contains additional G418 (2 mg/ml, Invitrogen, Nr.: 10131) and the cells were seeded into 384 well plates (300 cells/well). After a few weeks, the remaining surviving cells were tested with a voltage sensitive dye (Membrane Potential Assay Kit, Molecular Devices Nr.: R8034) for K+ channel expression. Positive cell clones were purified by the limited dilution technique. For this the clone with the highest and most robust signal in the voltage sensitive dye assay was further subcloned (incubated) in 384 well plates (0.7 cells/well) in order to obtain clonal purity. This generated a final stable CHO cell line expressing the C. elegans Slo-1a.
Cells were cultured at 37° C. and 5% CO2 in MEMalpha with Gutamax I (Invitrogen, Nr.: 32571), supplemented with 10% (v/v) heat inactivated fetal bovine serum (Invitrogen, Nr.: 10500), G418 (1 mg/ml, Invitrogen, Nr.: 10131). Cells were detached using Accutase (Sigma, Nr.: A6964).
Membrane Potential Measurements
Laboratory compound testing was performed on 384-well microtiter plates (MTPs, Greiner, Nr.: 781092). 8000 cells/well were plated onto 384-well MTPs and cultured for 20 to 24 hours at 37° C. and 5% CO2. After removal of the cell culture medium, the cells were washed once with tyrode (150 mM NaCl, 0.3 mM KCl, 2 mM CaCl2, 1 mM MgCl2, 0.8 mM NaH2PO4, 5 mM Glucose, 28 mM Hepes, pH 7.4) and then loaded with the voltage sensitive dye of the Membrane Potential Assay Kit diluted in tyrode for 1 h at room temperature.
After starting the measurement of fluorescence using a FLIPR Tetra (Molecular Devices, Exc. 510-545 nm, Emm. 565-625 nm), test compounds were added followed by the addition of KCl tyrode (final assay concentration: 70 mM KCl, 2 mM CaCl2, 1 mM MgCl2, 0.8 mM NaH2PO4, 5 mM Glucose, 28 mM Hepes, pH 7.4, including the voltage sensitive dye). The measurement was completed after 7 minutes.
The data were evaluated by using the ActivityBase XLfit software (IDBS) for curve fitting and calculation of the half-maximal effective concentration (EC50) and are reported as negative decadic logarithm (pE50).

[2] = tested on: Nippostrongylus brasiliensis; test: Nippostrongylus brasiliensis (NIPOBR) adult worms, acetylcholine esterase readout; conditions: read-out: activity (reduction of AChE compared to negative control); for inhibition at 1 µg/mL: at 1 μg/ml (1 ppm); for inhibition at 10 µg/mL: at 10 μg/ml (10 ppm)
Description: In Vitro Assay 3: Nippostrongylus brasiliensis (NIPOBR)
Adult Nippostrongylus brasiliensis were washed with saline buffer containing 100 U/ml penicillin, 0.1 mg/ml streptomycin and 2.5 μg/ml amphotericin B. Test compounds were dissolved in DMSO and worms were incubated in medium in a final concentration of 10 μg/ml (10 ppm) respectively 1 μg/ml (1 ppm). An aliquot of the medium was used to determine the acetylcholine esterase activity in comparison to a negative control. The principle of measuring acetylcholine esterase as readout for anthelmintic activity was described in Rapson et al (1986) and Rapson et al (1987).

Dirofilaria immitis = Dirofilaria immitis (DIROIM L4) larval motility; conditions: 72 h, read-out: EC50 (reduction of motility)

Chain of C. elegans Slo-1a (Q95V25 whole entry): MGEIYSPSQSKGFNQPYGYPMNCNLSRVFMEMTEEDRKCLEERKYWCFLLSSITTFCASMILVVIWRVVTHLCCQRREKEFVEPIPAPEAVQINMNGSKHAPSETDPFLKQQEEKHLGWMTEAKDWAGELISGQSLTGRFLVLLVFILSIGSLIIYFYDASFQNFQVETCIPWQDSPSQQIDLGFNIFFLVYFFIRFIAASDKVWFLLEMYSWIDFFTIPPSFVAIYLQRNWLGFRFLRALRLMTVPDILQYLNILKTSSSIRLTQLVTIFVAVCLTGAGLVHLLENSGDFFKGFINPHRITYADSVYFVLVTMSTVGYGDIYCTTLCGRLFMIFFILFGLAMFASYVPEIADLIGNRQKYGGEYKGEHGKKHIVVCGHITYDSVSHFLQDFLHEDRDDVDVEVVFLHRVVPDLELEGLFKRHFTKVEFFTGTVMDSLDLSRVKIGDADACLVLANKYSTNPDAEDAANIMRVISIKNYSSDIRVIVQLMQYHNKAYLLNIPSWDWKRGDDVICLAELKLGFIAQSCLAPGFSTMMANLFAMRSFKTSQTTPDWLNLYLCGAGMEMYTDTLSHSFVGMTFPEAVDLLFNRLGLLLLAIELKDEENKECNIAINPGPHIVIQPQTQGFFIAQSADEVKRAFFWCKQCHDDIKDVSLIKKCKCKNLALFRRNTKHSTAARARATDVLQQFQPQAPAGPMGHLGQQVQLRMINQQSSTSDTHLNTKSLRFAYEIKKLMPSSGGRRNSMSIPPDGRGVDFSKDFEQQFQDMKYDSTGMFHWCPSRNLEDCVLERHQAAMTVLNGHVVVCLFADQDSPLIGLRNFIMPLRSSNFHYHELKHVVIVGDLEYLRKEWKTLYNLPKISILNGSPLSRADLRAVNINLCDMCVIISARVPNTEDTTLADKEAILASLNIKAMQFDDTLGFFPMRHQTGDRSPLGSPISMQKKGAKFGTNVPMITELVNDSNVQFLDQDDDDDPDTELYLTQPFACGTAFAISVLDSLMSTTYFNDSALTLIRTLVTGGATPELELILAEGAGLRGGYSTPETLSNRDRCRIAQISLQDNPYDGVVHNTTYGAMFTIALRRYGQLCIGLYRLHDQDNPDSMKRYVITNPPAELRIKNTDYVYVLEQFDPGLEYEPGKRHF
Chain of D. immitis Slo-1 (I0DFK5 1-1119): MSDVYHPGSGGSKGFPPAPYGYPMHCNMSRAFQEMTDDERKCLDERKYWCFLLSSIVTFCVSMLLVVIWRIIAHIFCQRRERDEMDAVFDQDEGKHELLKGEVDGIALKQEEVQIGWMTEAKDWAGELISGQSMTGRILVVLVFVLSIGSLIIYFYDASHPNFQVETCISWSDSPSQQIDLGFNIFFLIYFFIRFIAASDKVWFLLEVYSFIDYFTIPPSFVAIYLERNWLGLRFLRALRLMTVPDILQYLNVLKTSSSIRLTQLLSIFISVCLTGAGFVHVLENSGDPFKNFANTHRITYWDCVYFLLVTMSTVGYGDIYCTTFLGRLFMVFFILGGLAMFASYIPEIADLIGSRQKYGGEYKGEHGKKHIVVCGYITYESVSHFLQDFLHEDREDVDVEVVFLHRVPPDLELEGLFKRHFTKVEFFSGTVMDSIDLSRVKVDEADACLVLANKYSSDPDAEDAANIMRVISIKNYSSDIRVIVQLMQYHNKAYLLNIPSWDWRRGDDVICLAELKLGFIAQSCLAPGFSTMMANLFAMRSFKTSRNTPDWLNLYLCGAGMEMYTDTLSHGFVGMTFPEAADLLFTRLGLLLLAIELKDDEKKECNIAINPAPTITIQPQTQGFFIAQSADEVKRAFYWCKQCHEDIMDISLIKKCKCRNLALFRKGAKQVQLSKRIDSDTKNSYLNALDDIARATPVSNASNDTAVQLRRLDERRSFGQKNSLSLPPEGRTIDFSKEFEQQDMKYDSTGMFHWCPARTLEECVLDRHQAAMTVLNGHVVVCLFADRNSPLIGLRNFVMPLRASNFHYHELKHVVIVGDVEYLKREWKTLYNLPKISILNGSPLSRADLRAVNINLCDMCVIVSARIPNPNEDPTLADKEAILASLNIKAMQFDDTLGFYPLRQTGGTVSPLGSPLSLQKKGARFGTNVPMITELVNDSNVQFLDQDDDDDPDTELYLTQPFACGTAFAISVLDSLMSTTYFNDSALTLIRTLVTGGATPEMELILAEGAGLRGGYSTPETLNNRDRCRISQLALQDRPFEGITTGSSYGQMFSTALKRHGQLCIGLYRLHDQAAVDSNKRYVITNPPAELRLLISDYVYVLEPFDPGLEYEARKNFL

SMILES | EC50 (D. immitis Slo-1) [nM] | EC50 [1] [µg/mL] | EC50 (C. elegans Slo-1a) [nM] | inhibition at 1 µg/mL [2] [%] | inhibition at 10 µg/mL [2] [%] | EC50 (Dirofilaria immitis) [µg/mL]
COc1c(C(=O)N[C@H]2CCOc3ccccc32)nnc2c(-c3ccc(F)c(F)c3)cccc12 [Example T5-8, 8-(3,4-Difluorophenyl)-N-[(4S)-3,4-dihydro-2H-chromen-4-yl]-4-methoxycinnoline-3-carboxamide] | 31.6 to 316 | < 0.1 | 3.16 to 31.6 | – | – | –
CN(C)c1c(C(=O)N[C@H]2CCOc3ccccc32)cnc2c(-c3cccc(Cl)c3Cl)c(Cl)cnc12 [Example T3-8, 7-chloro-8-(2,3-dichlorophenyl)-N-[(4S)-3,4-dihydro-2H-1-benzopyran-4-yl]-4-(dimethylamino)-1,5-naphthyridine-3-carboxamide] | 3.16 to 31.6 | < 0.1 | – | > 80 | > 80 | < 0.1
CN(C)c1c(C(=O)N[C@H]2CCOc3ccccc32)cnc2c(-c3cc(Cl)cc(Cl)c3)c(Cl)cnc12 [Example T3-7, 7-chloro-8-(3,5-dichlorophenyl)-N-[(4S)-3,4-dihydro-2H-1-benzopyran-4-yl]-4-(dimethylamino)-1,5-naphthyridine-3-carboxamide] | 3.16 to 31.6 | < 0.1 | – | – | – | < 0.1
COc1ncc(-c2cc(Cl)cc(Cl)c2)c2ncc(C(=O)N[C@H]3CCOc4ccccc43)c(N3CCOCC3)c12 [Example T2-10, 8-(3,5-dichlorophenyl)-N-[(4S)-3,4-dihydro-2H-1-benzopyran-4-yl]-5-methoxy-4-(morpholin-4-yl)-1,6-naphthyridine-3-carboxamide] | 31.6 to 316 | < 0.1 | – | > 80 | > 80 | < 0.1
O=C(N[C@H]1CCOc2ccccc21)c1cnc2c(-c3cc(F)cc(F)c3F)ncc(F)c2c1N1CCOCC1 [Example T1-8, N-[(4S)-3,4-dihydro-2H-1-benzopyran-4-yl]-5-fluoro-4-(morpholin-4-yl)-8-(2,3,5-trifluorophenyl)-1,7-naphthyridine-3-carboxamide] | 31.6 to 316 | < 0.1 | – | > 80 | > 80 | < 0.1
COc1ncc2c(N(C)C)c(C(=O)N[C@H]3CCOc4ccccc43)cnc2c1-c1cccc(Cl)c1Cl [Example T2-7, 8-(2,3-dichlorophenyl)-N-[(4S)-3,4-dihydro-2H-1-benzopyran-4-yl]-4-(dimethylamino)-7-methoxy-1,6-naphthyridine-3-carboxamide] | 3.16 to 31.6 | < 0.1 | – | – | – | < 0.1
CN(C)c1c(C(=O)N[C@H]2CCOc3ccccc32)cnc2c(-c3cccc(Cl)c3Cl)cncc12 [Example T2-2, 8-(2,3-Dichlorophenyl)-N-[(4S)-3,4-dihydro-2H-chromen-4-yl]-4-(dimethylamino)-1,6-naphthyridine-3-carboxamide] | – | < 0.1 | 3.16 to 31.6 | – | > 80 | –
COc1ncc2c(N3CCOCC3)c(C(=O)N[C@H]3CCOc4ccccc43)cnc2c1-c1cccc(Cl)c1Cl [Example T2-6, 8-(2,3-dichlorophenyl)-N-[(4S)-3,4-dihydro-2H-1-benzopyran-4-yl]-7-methoxy-4-(morpholin-4-yl)-1,6-naphthyridine-3-carboxamide] | 3.16 to 31.6 | < 0.1 | – | – | – | < 0.1
COc1cnc2c(N3CCOCC3)c(C(=O)N[C@H]3CCOc4ccccc43)cnc2c1-c1cccc(Cl)c1Cl [Example T3-14, 8-(2,3-dichlorophenyl)-N-[(4S)-3,4-dihydro-2H-1-benzopyran-4-yl]-7-methoxy-4-(morpholin-4-yl)-1,5-naphthyridine-3-carboxamide] | 3.16 to 31.6 | < 0.1 | – | > 80 | > 80 | < 0.1
COc1cnc(-c2cc(F)cc(F)c2F)c2ncc(C(=O)N[C@H]3CCOc4ccccc43)c(N(C)C)c12 [Example T1-13, N-[(4S)-3,4-dihydro-2H-1-benzopyran-4-yl]-4-(dimethylamino)-5-methoxy-8-(2,3,5-trifluorophenyl)-1,7-naphthyridine-3-carboxamide] | 31.6 to 316 | < 0.1 | – | > 80 | > 80 | < 0.1
O=C(N[C@H]1CCOc2ccccc21)c1cnc2c(-c3cccc(Cl)c3Cl)c(Cl)cnc2c1N1CCOCC1 [Example T3-9, 7-chloro-8-(2,3-dichlorophenyl)-N-[(4S)-3,4-dihydro-2H-1-benzopyran-4-yl]-4-(morpholin-4-yl)-1,5-naphthyridine-3-carboxamide] | 3.16 to 31.6 | < 0.1 | – | > 80 | > 80 | < 0.1
CN(C)c1c(C(=O)N[C@H]2CCOc3ccccc32)cnc2c(-c3cc(Cl)cc(Cl)c3)c(F)cnc12 [Example T3-11, 8-(3,5-dichlorophenyl)-N-[(4S)-3,4-dihydro-2H-1-benzopyran-4-yl]-4-(dimethylamino)-7-fluoro-1,5-naphthyridine-3-carboxamide] | 3.16 to 31.6 | < 0.1 | – | > 80 | > 80 | < 0.1
CN(C)c1c(C(=O)N[C@H]2CCOc3ccccc32)cnc2c(-c3cc(F)cc(F)c3F)c(Cl)cnc12 [Example T3-5, 7-chloro-N-[(4S)-3,4-dihydro-2H-1-benzopyran-4-yl]-4-(dimethylamino)-8-(2,3,5-trifluorophenyl)-1,5-naphthyridine-3-carboxamide] | 3.16 to 31.6 | < 0.1 | – | – | – | < 0.1
O=C(N[C@H]1CCOc2ccccc21)c1cnc2c(-c3cccc(Cl)c3Cl)c(F)cnc2c1N1CCOCC1 [Example T3-18, 8-(2,3-dichlorophneyl)-N-[(4S)-3,4-dihydro-2H-1-benzopyran-4-yl]-7-fluoro-4-(morpholin-4-yl)-1,5-naphthyridine-3-carboxamide] | 3.16 to 31.6 | < 0.1 | – | > 80 | > 80 | < 0.1
O=C(N[C@H]1CCOc2ccccc21)c1cnc2c(-c3cc(F)cc(F)c3F)c(Cl)cnc2c1N1CCOCC1 [Example T3-6, 7-chloro-N-[(4S)-3,4-dihydro-2H-1-benzopyran-4-yl]-4-(morpholin-4-yl)-8-(2,3,5-trifluorophenyl)-1,5-naphthyridine-3-carboxamide] | 3.16 to 31.6 | < 0.1 | – | – | – | < 0.1
COc1ncc2c(N3CCOCC3)c(C(=O)N[C@H]3CCOc4ccccc43)cnc2c1-c1cc(Cl)cc(Cl)c1 [Example T2-9, 8-(3,5-dichlorophenyl)-N-[(4S)-3,4-dihydro-2H-1-benzopyran-4-yl]-7-methoxy-4-(morpholin-4-yl)-1,6-naphthyridine-3-carboxamide] | 3.16 to 31.6 | < 0.1 | – | > 80 | > 80 | < 0.1
COc1cnc2c(N3CCOCC3)c(C(=O)N[C@H]3CCOc4ccccc43)cnc2c1-c1cc(F)cc(F)c1F [Example T3-16, N-[(4S)-3,4-dihydro-2H-1-benzopyran-4-yl]-7-methoxy-4-(morpholin-4-yl)-8-(2,3,5-trifluorophenyl)-1,5-naphthyridine-3-carboxamide] | 3.16 to 31.6 | < 0.1 | – | > 80 | > 80 | < 0.1
O=C(N[C@H]1CCOc2ccccc21)c1cnc2c(-c3cccc(Cl)c3Cl)nccc2c1 [Example T1-15, 8-(2,3-dichlorophenyl)-N-[(4S)-3,4-dihydro-2H-chromen-4-yl]-1,7-naphthyridine-3-carboxamide] | – | – | 31.6 to 316 | – | – | –
COc1ncc2c(N(C)C)c(C(=O)N[C@H]3CCOc4ccccc43)cnc2c1-c1cc(Cl)cc(Cl)c1 [Example T2-8, 8-(3,5-dichlorophenyl)-N-[(4S)-3,4-dihydro-2H-1-benzopyran-4-yl]-4-(dimethylamino)-7-methoxy-1,6-naphthyridine-3-carboxamide] | 3.16 to 31.6 | < 0.1 | – | > 80 | > 80 | < 0.1
COc1cnc2c(N(C)C)c(C(=O)N[C@H]3CCOc4ccccc43)cnc2c1-c1cccc(Cl)c1Cl [Example T3-12, 8-(2,3-dichlorophenyl)-N-[(4S)-3,4-dihydro-2H-1-benzopyran-4-yl]-4-(dimethylamino)-7-methoxy-1,5-naphthyridine-3-carboxamide] | 3.16 to 31.6 | < 0.1 | – | > 80 | > 80 | < 0.1
CN(C)c1c(C(=O)N[C@H]2CCOc3ccccc32)cnc2c(-c3cc(F)cc(F)c3F)c(F)cnc12 [Example T3-19, N-[(4S)-3,4-dihydro-2H-1-benzopyran-4-yl]-4-(dimethylamino)-7-fluoro-8-(2,3,5-trifluorophenyl)-1,5-naphthyridine-3-carboxamide] | 3.16 to 31.6 | < 0.1 | – | > 80 | > 80 | < 0.1
COc1cnc2c(N(C)C)c(C(=O)N[C@H]3CCOc4ccccc43)cnc2c1-c1cc(Cl)cc(Cl)c1 [Example T3-10, 8-(3,5-dichlorophenyl)-N-[(4S)-3,4-dihydro-2H-1-benzopyran-4-yl]-4-(dimethylamino)-7-methoxy-1,5-naphthyridine-3-carboxamide] | 3.16 to 31.6 | < 0.1 | – | > 80 | > 80 | < 0.1
